Measured values reported in PubChem BioAssay (NCI).
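Assay format: 96-well plates, 48-hour exposure. TGI is the concentration that stops growth completely.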

Experiments:
Experiment in all cases: NCI tumour cell line growth inhibition, 48 h
786-0 renal = system: 786-0 renal
A549 NSCLC = system: A549 NSCLC
ACHN renal = system: ACHN renal
CAKI-1 renal = system: CAKI-1 renal
CCRF-CEM leukemia = system: CCRF-CEM leukemia
COLO 205 colon = system: COLO 205 colon
DU-145 prostate = system: DU-145 prostate
EKVX NSCLC = system: EKVX NSCLC
HCC-2998 colon = system: HCC-2998 colon
HCT-116 colon = system: HCT-116 colon
HCT-15 colon = system: HCT-15 colon
HL-60(TB) leukemia = system: HL-60(TB) leukemia
HOP-62 NSCLC = system: HOP-62 NSCLC
HOP-92 NSCLC = system: HOP-92 NSCLC
HS 578T breast = system: HS 578T breast
HT29 colon = system: HT29 colon
IGROV1 ovarian = system: IGROV1 ovarian
K-562 leukemia = system: K-562 leukemia
KM12 colon = system: KM12 colon
LOX IMVI melanoma = system: LOX IMVI melanoma
M14 melanoma = system: M14 melanoma
MALME-3M melanoma = system: MALME-3M melanoma
MCF7 breast = system: MCF7 breast
MDA-MB-231 breast = system: MDA-MB-231 breast
MDA-MB-435 = system: MDA-MB-435
MDA-N = system: MDA-N
MOLT-4 leukemia = system: MOLT-4 leukemia
NCI-H226 lung = system: NCI-H226 lung
NCI-H23 lung = system: NCI-H23 lung
NCI-H460 lung = system: NCI-H460 lung
NCI-H522 lung = system: NCI-H522 lung
NCI/ADR-RES ovarian = system: NCI/ADR-RES ovarian
OVCAR-3 ovarian = system: OVCAR-3 ovarian
OVCAR-4 ovarian = system: OVCAR-4 ovarian
OVCAR-5 ovarian = system: OVCAR-5 ovarian
OVCAR-8 ovarian = system: OVCAR-8 ovarian
PC-3 prostate = system: PC-3 prostate
RPMI-8226 leukemia = system: RPMI-8226 leukemia
RXF 393 renal = system: RXF 393 renal
SF-268 CNS = system: SF-268 CNS
SF-295 CNS = system: SF-295 CNS
SF-539 CNS = system: SF-539 CNS
SK-MEL-2 melanoma = system: SK-MEL-2 melanoma
SK-MEL-28 melanoma = system: SK-MEL-28 melanoma
SK-MEL-5 melanoma = system: SK-MEL-5 melanoma
SK-OV-3 ovarian = system: SK-OV-3 ovarian
SN12C renal = system: SN12C renal
SNB-19 CNS = system: SNB-19 CNS
SNB-75 CNS = system: SNB-75 CNS
SR leukemia = system: SR leukemia
SW-620 colon = system: SW-620 colon
T-47D breast = system: T-47D breast
TK-10 renal = system: TK-10 renal
U251 CNS = system: U251 CNS
UACC-257 melanoma = system: UACC-257 melanoma
UACC-62 melanoma = system: UACC-62 melanoma
UO-31 renal = system: UO-31 renal
A498 renal = system: A498 renal
BT-549 breast = system: BT-549 breast

O=C(O)C(Cc1ccccc1)NCc1c(O)ccc2c(-c3ccccc3)cc(=O)oc12 (configuration not stated)
TGI (786-0 renal): > 100 µM
TGI (A549 NSCLC): > 100 µM
TGI (ACHN renal): > 100 µM
TGI (CAKI-1 renal): > 100 µM
TGI (CCRF-CEM leukemia): > 100 µM
TGI (COLO 205 colon): > 100 µM
TGI (DU-145 prostate): > 100 µM
TGI (EKVX NSCLC): > 100 µM
TGI (HCC-2998 colon): > 100 µM
TGI (HCT-116 colon): > 100 µM
TGI (HCT-15 colon): > 100 µM
TGI (HL-60(TB) leukemia): > 100 µM
TGI (HOP-62 NSCLC): > 100 µM
TGI (HOP-92 NSCLC): > 100 µM
TGI (HS 578T breast): > 100 µM
TGI (HT29 colon): > 100 µM
TGI (IGROV1 ovarian): > 100 µM
TGI (K-562 leukemia): > 100 µM
TGI (KM12 colon): > 100 µM
TGI (LOX IMVI melanoma): > 100 µM
TGI (M14 melanoma): > 100 µM
TGI (MALME-3M melanoma): > 100 µM
TGI (MCF7 breast): > 100 µM
TGI (MDA-MB-231 breast): > 100 µM
TGI (MDA-MB-435): > 100 µM
TGI (MDA-N): > 100 µM
TGI (MOLT-4 leukemia): > 100 µM
TGI (NCI-H226 lung): > 100 µM
TGI (NCI-H23 lung): > 100 µM
TGI (NCI-H460 lung): > 100 µM
TGI (NCI-H522 lung): > 100 µM
TGI (NCI/ADR-RES ovarian): > 100 µM
TGI (OVCAR-3 ovarian): > 100 µM
TGI (OVCAR-4 ovarian): > 100 µM
TGI (OVCAR-5 ovarian): > 100 µM
TGI (OVCAR-8 ovarian): > 100 µM
TGI (PC-3 prostate): > 100 µM
TGI (RPMI-8226 leukemia): > 100 µM
TGI (RXF 393 renal): > 100 µM
TGI (SF-268 CNS): > 100 µM
TGI (SF-295 CNS): > 100 µM
TGI (SF-539 CNS): > 100 µM
TGI (SK-MEL-2 melanoma): > 100 µM
TGI (SK-MEL-28 melanoma): > 100 µM
TGI (SK-MEL-5 melanoma): > 100 µM
TGI (SK-OV-3 ovarian): > 100 µM
TGI (SN12C renal): > 100 µM
TGI (SNB-19 CNS): > 100 µM
TGI (SNB-75 CNS): > 100 µM
TGI (SR leukemia): > 100 µM
TGI (SW-620 colon): > 100 µM
TGI (T-47D breast): > 100 µM
TGI (TK-10 renal): > 100 µM
TGI (U251 CNS): > 100 µM
TGI (UACC-257 melanoma): > 100 µM
TGI (UACC-62 melanoma): > 100 µM
TGI (UO-31 renal): > 100 µM

Nc1c(C(=O)c2ccc(Cl)c(Cl)c2)[nH]c(NCc2ccccc2)c1C(=S)Nc1ccccc1
TGI (786-0 renal): 27.9 µM
TGI (A498 renal): 31.5 µM
TGI (A549 NSCLC): 23.3 µM
TGI (ACHN renal): 28.1 µM
TGI (BT-549 breast): 30.5 µM
TGI (CAKI-1 renal): 32.2 µM
TGI (COLO 205 colon): 3.79 µM
TGI (DU-145 prostate): 32.4 µM
TGI (EKVX NSCLC): 29.6 µM
TGI (HCC-2998 colon): 3.48 µM
TGI (HCT-116 colon): 12.6 µM
TGI (HCT-15 colon): 6.27 µM
TGI (HL-60(TB) leukemia): 38.4 µM
TGI (HOP-62 NSCLC): 34.7 µM
TGI (HT29 colon): 11 µM
TGI (IGROV1 ovarian): 26.5 µM
TGI (K-562 leukemia): > 100 µM
TGI (KM12 colon): 10.5 µM
TGI (LOX IMVI melanoma): 4.53 µM
TGI (M14 melanoma): 12.6 µM
TGI (MALME-3M melanoma): 11.7 µM
TGI (MCF7 breast): 12.3 µM
TGI (MDA-MB-231 breast): 17.6 µM
TGI (MDA-MB-435): 18.3 µM
TGI (MDA-N): 14.5 µM
TGI (MOLT-4 leukemia): > 100 µM
TGI (NCI-H226 lung): 31.4 µM
TGI (NCI-H23 lung): 41.6 µM
TGI (NCI-H460 lung): 20.7 µM
TGI (NCI-H522 lung): 17.7 µM
TGI (NCI/ADR-RES ovarian): 4.72 µM
TGI (OVCAR-3 ovarian): 38.5 µM
TGI (OVCAR-4 ovarian): 15.8 µM
TGI (OVCAR-5 ovarian): 28.2 µM
TGI (OVCAR-8 ovarian): 30.2 µM
TGI (PC-3 prostate): 30.5 µM
TGI (RPMI-8226 leukemia): 6.03 µM
TGI (RXF 393 renal): 27.3 µM
TGI (SF-268 CNS): 31.5 µM
TGI (SF-295 CNS): 15 µM
TGI (SF-539 CNS): 6.47 µM
TGI (SK-MEL-2 melanoma): 25.9 µM
TGI (SK-MEL-28 melanoma): 18.9 µM
TGI (SK-OV-3 ovarian): 32.2 µM
TGI (SN12C renal): 29.2 µM
TGI (SNB-19 CNS): 37.7 µM
TGI (SNB-75 CNS): 24.1 µM
TGI (SR leukemia): > 100 µM
TGI (SW-620 colon): 10.1 µM
TGI (T-47D breast): 81.2 µM
TGI (TK-10 renal): 33.4 µM
TGI (U251 CNS): 15.7 µM
TGI (UACC-257 melanoma): 30.5 µM
TGI (UACC-62 melanoma): 29.2 µM
TGI (UO-31 renal): 21.6 µM
